Where two headings read alike, the source gives them in different places.
Tests used:
[1] = system: 5-LO product formation in human M1 macrophages; test: Determination of LO products in human macrophages; type: cell-based; conditions: 10 µM, activated by Staphylococcus aureus for 90 min
Experimental: Figure S4. Human monocyte-derived macrophages were pre-treated with test compounds (10 µM) or vehicle 15 min prior stimulation. Cells were then stimulated with S. aureus for 90 min. Data are expressed as percentage of the mean of the 100% control DMSO of n=3 experiments. […]
Determination of LO products in human macrophages
Human M1 macrophages (2 x 10^6 /mL) were pre-treated with test compounds or vehicle (DMSO, 0.1%) for 15 min. Afterward, 1% Staphylococcus aureus 6850wt-conditioned medium (SACM) was added for 90 minutes at 37 °C in order to induce LO product formation. The reaction was stopped by transferring supernatants (1 mL) into 2 mL ice-cold MeOH. After addition of the deuterated LM standards (200 nM d8-5S-HETE, d4-LTB4, d5-LXA4, d5-RvD2, d4-PGE2 and 10 µM d8-AA; Cayman Chemical/Biomol GmbH, Hamburg, Germany), samples were kept at −20 °C for 60 min and then centrifuged (1,200×g, 4°C, 10 min). Solid-phase C18 cartridges were equilibrated with 6 mL methanol before the addition of 6 mL H2O. Then, 9 mL acidified H2O (pH 3.5, HCl) was added, and the samples were loaded onto the conditioned C18 columns that were subsequently washed with 6 mL H2O, followed by 6 mL n-hexane. The LM were eluted with 6 mL of methyl formate, samples were brought to dryness using an evaporation system (TurboVap LV, Biotage) and immediately […]
resuspended in methanol-water (50:50 vol/vol) for UPLC-MS-MS automated injections. The UPLC-MS-MS system consisted of an Acquity UPLC BEH C18 column (1.7 µm, 2.1 × 50 mm, Waters) and an AcquityTM UPLC (Waters) as well as a QTRAP 5500 mass spectrometer (Sciex, Darmstadt, Germany) equipped with an electrospray ionization source. The QTrap 5500 was operated in negative ionization mode using scheduled multiple reaction monitoring (MRM) coupled with the information-dependent acquisition (IDA) and an enhanced product ion scan (EPI). The scheduled MRM window was 90 s, and each LM parameter was optimized individually. LOX product analysis, using an MRM method with diagnostic ion fragments and identification, was performed as described previously.922 […]
Following incubations of 24 h, cells were collected with a cell scraper and, after centrifugation at 14000 × g for 10 min at 4 °C, the supernatant was collected and stored at −80°C for ELISA analysis 1023.
Male CD-1 mice (25–30 g of weight) were obtained from Charles River (Milan, Italy) and kept in an animal care facility under controlled temperature, humidity, with ad libitum access to water and standard laboratory chow diet. All experimental procedures were carried out according to the international and national law and policies (EU Directive 2010/63/EU for animal experiments, ARRIVE guidelines, and the Basel declaration including the 3R concept)11,1224, 25. […]

[2] = system: 5-LO product formation in intact neutrophils (PMNL); test: Determination of 5-LO products in neutrophils; type: cell-based; conditions: Homo sapiens
Experimental: Figure S3. Concentration-response curves for inhibition of 5-LO product formation in neutrophils.
Cells were pre-incubated with compounds 3, 6, 7 and 9 or 0.1% DMSO over 10 min at 37 °C, and then stimuli were added. On the left (A,C, E, G), cells were stimulated with 2.5 µM Ca 2+-ionophore A23187 over 10 min; on the right (B, D, F, H), cells were stimulated with 2.5 µM Ca 2+-ionophore A23187 plus 20 µM arachidonic acid over 10 min. Data are expressed as percentage of uninhibited control (100%), means, S.E.M., n = 3. […]
Determination of 5-LO products in neutrophils
Freshly isolated neutrophils were resuspended in PBS buffer containing 0.1% glucose and 1 mM CaCl2 to a final cell density of 5 × 10 6. Cells were pre-incubated with compounds 3, 6, 7, 9 or DMSO vehicle (0.1%) at 37 °C for 10 min. Then, 2.5 µM Ca 2+-ionophore A23187 (with or without supplementation of 20 µM of arachidonic acid) was added as stimulus, and cells were left at 37 °C for 10 min. 1 mL of ice-cold methanol was used to stop the reaction of 5-LO product formation on ice, and 530 µL of PBS plus HCl and PGB 1 (as internal standard) were added. Finally, cells were centrifuged (2000 x g) over 10 min at room temperature, and 5-LO products were extracted by solid-phase extraction, and they were quantified by RP-HPLC as described above. […]

mPGES-1 = molecular target: T1, mPGES-1 (Homo sapiens, UniProt O14684); test: Cell-free mPGES-1 activity assay (PGE2 biosynthesis); type: biochemical; conditions: for remaining activity at 10 µM: percentage of control (100%), read-out: mPGES-1 residual activity at 10 μM (%); for IC50: n = 3, read-out: IC50 value ± SEM (mPGES-1, cell-free)
T1 construct: endogenous in cells; host or cells: A549 cells stimulated with IL-1β; microsomal fraction
T1 sequence (O14684 1-152): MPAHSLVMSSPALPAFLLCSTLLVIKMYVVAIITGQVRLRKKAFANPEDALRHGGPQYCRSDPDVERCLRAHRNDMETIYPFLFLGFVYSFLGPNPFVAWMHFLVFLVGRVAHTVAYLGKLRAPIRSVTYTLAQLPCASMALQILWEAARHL
Text: (Table 1). […] From the structural point of view, the biological affinities of compounds 3 and 7 (Figure 2A and C) could be positively affected by the 2-bromobenzoyl substituent able to accommodate in a deep binding pocket on the mPGES-1 surface. This moiety interacts by van der Waals contacts with amino acids of the cytoplasmic part and establishes π-stacking with Phe44ChainC and His53ChainC hydrogen bonds with Ser127, and a halogen bond between the bromine atom and the side chain of Aps49ChainC. Furthermore, the 3-phenylphenol and 2-aminobiphenyl moieties of 3 and 7 (Figure 2A and C), respectively, are able to establish a peculiar π-stacking with Tyr130ChainA and a hydrogen bond with Gln134ChainA. […]
mM glutathione, and 250 mM sucrose) and the protein concentration was defined. Potassium phosphate buffer (0.1 M, pH = 7.4) plus glutathione (2.5 mM) was added to dilute microsomes, which were then seeded in a 96-well plate. […]
preincubated for 15 min on ice. MK886 (10 µM) and MD-52 (1 µM) were used as reference drugs.
The reactions started by adding 20 µM of PGH2, and 1 min later, 100 µl of a solution containing FeCl3 (40 mM), citric acid (80 mM), and 11β-PGE 2 (10 µM) were added for stopping the conversion of PGH2. After the extraction of PGE2 and 11β-PGE 2 (internal stardard) by solid-phase extraction, […]

[3] = 2.5 µM A23187, n = 3, read-out: 5-LO product formation on PMNL, IC50 value ± SEM, stimulus: A23187
[4] = 2.5 µM A23187 plus 20 μM arachidonic acid, n = 3, read-out: 5-LO product formation on PMNL, IC50 value ± SEM, stimulus: A23187 + AA

| IC50 [2, 3] | IC50 [2, 4] | remaining activity at 10 µM (mPGES-1) | IC50 (mPGES-1) | SMILES | cellular 5-LO product formation in pro-inflammatory macrophages [1] |
| --- | --- | --- | --- | --- | --- |
| 4.8 ± 1.9 µM | 6.9 ± 2.2 µM | 31.7% | 3.1 ± 0.6 µM | Cc1cc(C(=O)Nc2nnc(-c3ccc(-c4ccccc4N)cc3)s2)cc(Cl)n1 [compound 6] | potent inhibition of cellular 5-LO product formation |
| 2.1 ± 0.3 µM | 4.2 ± 0.3 µM | 20.9% | 1.7 ± 0.3 µM | Nc1ccccc1-c1ccc(-c2nnc(NC(=O)c3c(Cl)ccnc3Cl)s2)cc1 [compound 9] | potent inhibition of cellular 5-LO product formation |
| 4.9 ± 0.5 µM | 5.2 ± 1.2 µM | 8.4% | 0.2 µM | O=C(Nc1nnc(-c2ccc(-c3cccc(O)c3)cc2)s1)c1ccccc1Br [compound 3] | potent inhibition of cellular 5-LO product formation |
| 4.2 ± 1.4 µM | 2.3 ± 0.8 µM | 16.7% | 0.15 µM | Nc1ccccc1-c1ccc(-c2nnc(NC(=O)c3ccccc3Br)s2)cc1 [compound 7] | potent inhibition of cellular 5-LO product formation |

— paper PMC9841589, “Identification of 2-Aminoacyl-1,3,4-thiadiazoles as Prostaglandin E2 and Leukotriene Biosynthesis Inhibitors” (ACS Medicinal Chemistry Letters, 2022)
